From US20250320193A1, “OXOISOINDOLINYL SUBSTITUTED PIPERIDINEDIONE DERIVATIVE AND USE THEREOF” (GLUETACS THERAPEUTICS (SHANGHAI) CO., LTD., priority 2022, published 2025)

Tests used:
[1] = target: human Cereblon WT GST-tagged protein (Homo sapiens (Human), UniProt Q96SW2); test: CRBN-binding affinity, HTRF (CEREBLON BINDING kit, CISBIO); conditions: HTRF inhibitory activity
Summary of the method: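 HTRF competition format: test compound displaces Thalidomide-Red from GST-tagged human Cereblon WT, detected with a Eu-labelled anti-GST antibody. Percent CRBN binding inhibition was derived from the 620 nm signal, normalized to solvent-control and protein-free blank wells.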

IKZF1 = IKZF1 (Homo sapiens (Human), UniProt Q13422+Q96SW2); test: Western blot, substrate protein expression in hPBMC: IKZF1; assay type: cell-based; conditions: for substrate protein remaining % IKZF1: hPBMC, compound 500 nM, 24 hours, Western blot
Summary of the method: (§1)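 hPBMC, 1×10^6 cells/mL, 24 h compound exposure; RIPA lysis, BCA protein assay, SDS-PAGE, NC membrane immunoblot. Densitometry vs internal control → % protein remaining; degradation % = 100% − remaining; DC50 = conc. at 50% of DMSO band signal.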

IKZF3 = IKZF3 (Homo sapiens (Human), UniProt Q96SW2+Q9UKT9); test: Western blot, substrate protein expression in hPBMC: IKZF3; assay type: cell-based; conditions: for substrate protein remaining % IKZF3: hPBMC, compound 500 nM, 24 hours, Western blot
Summary of the method: as §1

GSPT1 = GSPT1 (Homo sapiens (Human), UniProt P15170+Q96SW2); test: Western blot, substrate protein expression in hPBMC: GSPT1; assay type: cell-based; conditions: for substrate protein remaining % GSPT1: hPBMC, compound 500 nM, 24 hours, Western blot; for concentration at which GSPT1 protein was clearly/significantly degraded (Western blot, FIG. 1): hPBMCs
Summary of the method: as §1

Sequence of GSPT1 (P15170 whole entry): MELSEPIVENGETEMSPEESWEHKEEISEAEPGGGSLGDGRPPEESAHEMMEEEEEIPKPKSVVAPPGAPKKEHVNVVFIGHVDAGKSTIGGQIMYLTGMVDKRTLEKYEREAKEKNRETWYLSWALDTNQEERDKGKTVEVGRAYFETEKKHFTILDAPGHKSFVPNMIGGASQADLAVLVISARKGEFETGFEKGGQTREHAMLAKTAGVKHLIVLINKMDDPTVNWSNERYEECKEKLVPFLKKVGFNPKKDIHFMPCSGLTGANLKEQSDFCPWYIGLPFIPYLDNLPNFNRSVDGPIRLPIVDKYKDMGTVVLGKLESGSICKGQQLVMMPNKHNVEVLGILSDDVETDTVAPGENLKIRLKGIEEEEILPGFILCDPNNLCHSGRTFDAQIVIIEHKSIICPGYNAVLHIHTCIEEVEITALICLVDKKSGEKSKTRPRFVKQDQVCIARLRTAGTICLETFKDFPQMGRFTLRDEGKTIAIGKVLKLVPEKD
Sequence of GSPT1 (Q96SW2 whole entry): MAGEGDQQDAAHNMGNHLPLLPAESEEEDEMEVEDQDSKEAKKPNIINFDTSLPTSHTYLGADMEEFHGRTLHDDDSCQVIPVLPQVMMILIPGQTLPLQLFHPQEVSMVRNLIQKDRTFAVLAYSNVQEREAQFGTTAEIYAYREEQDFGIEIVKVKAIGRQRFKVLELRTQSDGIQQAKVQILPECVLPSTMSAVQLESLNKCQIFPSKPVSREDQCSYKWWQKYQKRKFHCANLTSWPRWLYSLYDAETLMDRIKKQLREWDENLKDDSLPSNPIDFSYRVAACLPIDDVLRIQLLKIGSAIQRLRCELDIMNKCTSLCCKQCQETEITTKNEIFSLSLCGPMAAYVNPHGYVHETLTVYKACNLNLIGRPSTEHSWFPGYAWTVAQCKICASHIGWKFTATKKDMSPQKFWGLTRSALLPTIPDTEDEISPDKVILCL
Sequence of GSPT1 (Q16531 whole entry partner): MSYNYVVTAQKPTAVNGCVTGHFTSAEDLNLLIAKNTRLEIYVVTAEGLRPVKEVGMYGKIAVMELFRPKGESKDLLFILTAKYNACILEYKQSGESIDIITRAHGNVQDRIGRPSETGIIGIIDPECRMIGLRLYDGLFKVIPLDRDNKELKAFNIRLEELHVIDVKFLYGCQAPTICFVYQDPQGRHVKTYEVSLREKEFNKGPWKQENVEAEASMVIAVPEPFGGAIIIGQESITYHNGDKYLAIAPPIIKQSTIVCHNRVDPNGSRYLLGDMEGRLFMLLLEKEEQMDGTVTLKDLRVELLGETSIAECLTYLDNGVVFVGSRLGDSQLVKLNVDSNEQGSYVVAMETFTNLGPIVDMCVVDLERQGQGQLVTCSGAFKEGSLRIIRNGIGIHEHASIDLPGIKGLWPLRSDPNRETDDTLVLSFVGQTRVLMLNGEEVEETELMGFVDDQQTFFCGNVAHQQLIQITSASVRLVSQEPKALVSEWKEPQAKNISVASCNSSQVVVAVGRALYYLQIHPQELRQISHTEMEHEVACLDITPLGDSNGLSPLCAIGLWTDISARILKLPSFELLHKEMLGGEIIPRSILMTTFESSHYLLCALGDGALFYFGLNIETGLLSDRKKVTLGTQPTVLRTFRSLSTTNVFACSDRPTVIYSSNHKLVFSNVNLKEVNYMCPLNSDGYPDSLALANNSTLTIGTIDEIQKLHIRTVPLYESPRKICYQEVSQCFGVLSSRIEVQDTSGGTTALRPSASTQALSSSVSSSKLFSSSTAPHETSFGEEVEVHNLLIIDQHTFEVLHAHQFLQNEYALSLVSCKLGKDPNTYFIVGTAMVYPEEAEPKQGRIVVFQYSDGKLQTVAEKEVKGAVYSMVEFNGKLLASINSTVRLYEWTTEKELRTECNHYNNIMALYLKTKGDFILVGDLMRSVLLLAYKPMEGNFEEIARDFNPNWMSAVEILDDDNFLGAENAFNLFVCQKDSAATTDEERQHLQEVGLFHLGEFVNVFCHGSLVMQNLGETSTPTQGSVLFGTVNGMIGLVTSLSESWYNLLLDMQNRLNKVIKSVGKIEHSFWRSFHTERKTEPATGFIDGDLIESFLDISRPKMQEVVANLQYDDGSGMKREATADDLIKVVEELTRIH
Sequence of human Cereblon WT GST-tagged protein (Q96SW2 whole entry): as the sequence (Q96SW2 whole entry) above
Sequence of IKZF1 (Q13422 whole entry): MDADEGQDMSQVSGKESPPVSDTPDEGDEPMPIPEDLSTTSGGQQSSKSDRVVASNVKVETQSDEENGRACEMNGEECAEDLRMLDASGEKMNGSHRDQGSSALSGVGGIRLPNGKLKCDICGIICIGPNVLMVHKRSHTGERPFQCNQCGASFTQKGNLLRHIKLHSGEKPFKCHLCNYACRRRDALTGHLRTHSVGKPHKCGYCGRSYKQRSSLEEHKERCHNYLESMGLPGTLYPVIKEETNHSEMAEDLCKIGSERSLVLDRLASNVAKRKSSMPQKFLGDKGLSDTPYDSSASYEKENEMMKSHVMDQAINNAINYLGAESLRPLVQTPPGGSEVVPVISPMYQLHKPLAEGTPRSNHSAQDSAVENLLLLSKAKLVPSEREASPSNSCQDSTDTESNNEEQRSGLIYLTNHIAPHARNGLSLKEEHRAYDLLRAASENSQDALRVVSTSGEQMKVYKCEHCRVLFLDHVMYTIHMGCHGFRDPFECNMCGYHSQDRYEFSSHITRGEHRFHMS
Sequence of IKZF1 (Q96SW2 whole entry): as the sequence (Q96SW2 whole entry) above
Sequence of IKZF1 (Q16531 whole entry partner): as the sequence (Q16531 whole entry partner) above
Sequence of IKZF3 (Q9UKT9 whole entry): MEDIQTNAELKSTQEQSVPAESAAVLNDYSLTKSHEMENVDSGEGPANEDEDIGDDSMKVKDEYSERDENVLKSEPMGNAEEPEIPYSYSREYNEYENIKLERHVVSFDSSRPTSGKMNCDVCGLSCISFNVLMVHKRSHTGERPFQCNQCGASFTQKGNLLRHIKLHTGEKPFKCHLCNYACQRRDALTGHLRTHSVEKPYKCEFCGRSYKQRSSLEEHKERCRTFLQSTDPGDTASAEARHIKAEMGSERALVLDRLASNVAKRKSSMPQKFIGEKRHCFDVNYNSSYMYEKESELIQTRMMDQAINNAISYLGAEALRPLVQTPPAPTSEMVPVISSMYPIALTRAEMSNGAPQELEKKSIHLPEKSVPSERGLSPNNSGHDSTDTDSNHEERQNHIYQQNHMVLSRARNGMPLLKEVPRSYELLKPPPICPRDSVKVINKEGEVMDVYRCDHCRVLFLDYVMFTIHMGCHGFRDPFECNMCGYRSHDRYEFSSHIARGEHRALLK
Sequence of IKZF3 (Q96SW2 whole entry): as the sequence (Q96SW2 whole entry) above
Sequence of IKZF3 (Q16531 whole entry partner): as the sequence (Q16531 whole entry partner) above

SMILES	IC50 [1] [nM]	concentration at which IKZF1 protein was significantly degraded (Western blot, FIG. 1) (IKZF1; hPBMCs)	concentration at which IKZF3 protein was significantly degraded (Western blot, FIG. 1) (IKZF3; hPBMCs)	substrate protein remaining % IKZF1 (IKZF1)	substrate protein remaining % IKZF3 (IKZF3)	substrate protein remaining % GSPT1 (GSPT1)	concentration at which GSPT1 protein was clearly/significantly degraded (Western blot, FIG. 1) (GSPT1)
O=C1CCC(N2Cc3c(CN4CCN(C(c5ccccc5)c5ccccn5)CC4)cccc3C2=O)C(=O)N1 (stereo not drawn) [GT-03836, 3-(1-oxo-4-((4-(phenyl(pyridin-2-yl)methyl)piperazin-1-yl)methyl)isoindolin-2-yl)piperidine-2,6-dione]	500 to 1000			B (B represents substrate protein remaining % > 50%)	B (B represents substrate protein remaining % > 50%)	A (A represents 0% ≤ substrate protein remaining % ≤ 50%)	
O=C1CCC(N2Cc3c(ccc(CN4C5CCC4CN(C(c4ccccc4)c4ccccc4)C5)c3F)C2=O)C(=O)N1 (stereo not drawn) [GT-03838, 3-(5-((3-benzhydryl-3,8-diazabicyclo[3.2.1]octan-8-yl)methyl)-4-fluoro-1-oxoisoindolin-2-yl)piperidine-2,6-dione]	500 to 1000			A (A represents 0% ≤ substrate protein remaining % ≤ 50%)	A (A represents 0% ≤ substrate protein remaining % ≤ 50%)	A (A represents 0% ≤ substrate protein remaining % ≤ 50%)	
CC1CN(Cc2ccc3c(c2)CN(C2CCC(=O)NC2=O)C3=O)CC(C)N1C(c1ccccc1)c1ccccc1 (stereo not drawn) [GT-03872, 3-(5-((4-benzhydryl-3,5-dimethylpiperazin-1-yl)methyl)-1-oxoisoindolin-2-yl)piperidine-2,6-dione]	1000 to 1900			B (B represents substrate protein remaining % > 50%)	A (A represents 0% ≤ substrate protein remaining % ≤ 50%)	A (A represents 0% ≤ substrate protein remaining % ≤ 50%)	
CC1CN(C(c2ccccc2)c2ccccc2)CC(C)N1Cc1cc2c(cc1F)C(=O)N(C1CCC(=O)NC1=O)C2 (stereo not drawn) [GT-03873, 3-(5-((4-benzhydryl-2,6-dimethylpiperazin-1-yl)methyl)-6-fluoro-1-oxoisoindolin-2-yl)piperidine-2,6-dione]	< 500			A (A represents 0% ≤ substrate protein remaining % ≤ 50%)	B (B represents substrate protein remaining % > 50%)	A (A represents 0% ≤ substrate protein remaining % ≤ 50%)	
O=C1CCC(N2Cc3c(ccc(CN4CCCN(C(c5ccccc5)c5ccccc5)CC4)c3F)C2=O)C(=O)N1 (stereo not drawn) [GT-04164, 3-(5-((4-benzhydryl-1,4-diazepan-1-yl)methyl)-4-fluoro-1-oxoisoindolin-2-yl)piperidine-2,6-dione]	500 to 1000			B (B represents substrate protein remaining % > 50%)	B (B represents substrate protein remaining % > 50%)	A (A represents 0% ≤ substrate protein remaining % ≤ 50%)	
O=C1CCC(N2Cc3cc(CN4CCN(C(c5ccccn5)c5ccccn5)CC4)c(F)cc3C2=O)C(=O)N1 (stereo not drawn) [GT-04384, 3-(5-((4-(di(pyridin-2-yl)methyl)piperazin-1-yl)methyl)-6-fluoro-1-oxoisoindolin-2-yl)piperidine-2,6-dione]	500 to 1000			B (B represents substrate protein remaining % > 50%)	B (B represents substrate protein remaining % > 50%)	A (A represents 0% ≤ substrate protein remaining % ≤ 50%)	
O=C1CCC(N2Cc3c(CN4CCC(N(c5ccccc5)c5ccccn5)CC4)cccc3C2=O)C(=O)N1 (stereo not drawn) [GT-04948, 3-(1-oxo-4-((4-(phenyl(pyridin-2-yl)amino)piperidin-1-yl)methyl)isoindolin-2-yl)piperidine-2,6-dione]	500 to 1000			B (B represents substrate protein remaining % > 50%)	B (B represents substrate protein remaining % > 50%)	A (A represents 0% ≤ substrate protein remaining % ≤ 50%)	< 500 nM
O=C1CCC(N2Cc3c(CN4CCC(N(c5ccccc5)c5ccccc5)CC4)cccc3C2=O)C(=O)N1 (stereo not drawn) [GT-04992, 3-(4-((4-(diphenylamino)piperidin-1-yl)methyl)-1-oxoisoindolin-2-yl)piperidine-2,6-dione]	< 500			B (B represents substrate protein remaining % > 50%)	B (B represents substrate protein remaining % > 50%)	A (A represents 0% ≤ substrate protein remaining % ≤ 50%)	
O=C1CCC(N2Cc3cc(C(=O)N4CCN(C(c5ccccc5)c5ccccc5)CC4)ccc3C2=O)C(=O)N1 (stereo not drawn) [GT-05689, 3-(5-(4-benzhydrylpiperazine-1-carbonyl)-1-oxoisoindolin-2-yl)piperidine-2,6-dione]	500 to 1000			B (B represents substrate protein remaining % > 50%)	B (B represents substrate protein remaining % > 50%)	A (A represents 0% ≤ substrate protein remaining % ≤ 50%)	below 50 nM
O=C1CCC(N2C(=O)c3ccc(CN4CC5CCC4CN5C(c4ccccc4)c4ccccc4)cc3C2=O)C(=O)N1 (stereo not drawn) [GT-05730, 5-((5-benzhydryl-2,5-diazabicyclo[2.2.2]octan-2-yl)methyl)-2-(2,6-dioxopiperidin-3-yl) isoindoline-1,3-dione]	1000 to 1900			B (B represents substrate protein remaining % > 50%)	B (B represents substrate protein remaining % > 50%)	A (A represents 0% ≤ substrate protein remaining % ≤ 50%)	

Second part, led by results:

IC50 [1] [nM]	concentration at which IKZF1 protein was significantly degraded (Western blot, FIG. 1) (IKZF1; hPBMCs)	concentration at which IKZF3 protein was significantly degraded (Western blot, FIG. 1) (IKZF3; hPBMCs)	SMILES	substrate protein remaining % IKZF1 (IKZF1)	substrate protein remaining % IKZF3 (IKZF3)	substrate protein remaining % GSPT1 (GSPT1)	concentration at which GSPT1 protein was clearly/significantly degraded (Western blot, FIG. 1) (GSPT1)
< 500			O=C1CCC(N2Cc3cc(CN4CC5CCC4CN5C(c4ccccc4)c4ccccc4)ccc3C2=O)C(=O)N1 (stereo not drawn) [GT-03993, 3-(5-((5-benzhydryl-2,5-diazabicyclo[2.2.2]octan-2-yl)methyl)-1-oxoisoindolin-2-yl)piperidine-2,6-dione]	B (B represents substrate protein remaining % > 50%)	A (A represents 0% ≤ substrate protein remaining % ≤ 50%)	A (A represents 0% ≤ substrate protein remaining % ≤ 50%)	
< 500			O=C1CCC(N2Cc3cc(CN4CCCN(C(c5ccccc5)c5ccccc5)CC4)ccc3C2=O)C(=O)N1 (stereo not drawn) [GT-03994, 3-(5-((4-benzhydryl-1,4-diazepan-1-yl)methyl)-1-oxoisoindolin-2-yl)piperidine-2,6-dione]	B (B represents substrate protein remaining % > 50%)	B (B represents substrate protein remaining % > 50%)	A (A represents 0% ≤ substrate protein remaining % ≤ 50%)	
500 to 1000			O=C1CCC(N2Cc3c(ccc(CN4CC5CCC4CN5C(c4ccccc4)c4ccccc4)c3F)C2=O)C(=O)N1 (stereo not drawn) [GT-04163, 3-(5-((5-benzhydryl-2,5-diazabicyclo[2.2.2]octan-2-yl)methyl)-4-fluoro-1-oxoisoindolin-2-yl)piperidine-2,6-dione]	B (B represents substrate protein remaining % > 50%)	A (A represents 0% ≤ substrate protein remaining % ≤ 50%)	A (A represents 0% ≤ substrate protein remaining % ≤ 50%)	
< 500			O=C1CCC(N2Cc3cc(CN4CCN(C(c5ccccn5)c5ccccn5)CC4)ccc3C2=O)C(=O)N1 (stereo not drawn) [GT-04383, 3-(5-((4-(di(pyridin-2-yl)methyl)piperazin-1-yl)methyl)-1-oxoisoindolin-2-yl)piperidine-2,6-dione]	B (B represents substrate protein remaining % > 50%)	B (B represents substrate protein remaining % > 50%)	A (A represents 0% ≤ substrate protein remaining % ≤ 50%)	
500 to 1000			O=C1CCC(N2Cc3c(CN4CCN(C(c5ccccc5)c5ccncc5)CC4)cccc3C2=O)C(=O)N1 (stereo not drawn) [GT-04945, 3-(1-oxo-4-((4-(phenyl(pyridin-4-yl)methyl)piperazin-1-yl)methyl)isoindolin-2-yl)piperidine-2,6-dione]	B (B represents substrate protein remaining % > 50%)	B (B represents substrate protein remaining % > 50%)	A (A represents 0% ≤ substrate protein remaining % ≤ 50%)	
1000 to 1900	below 50 nM	below 50 nM	O=C1CCC(N2Cc3cc(CCCN4CCN(C(c5ccccc5)c5ccccc5)CC4)ccc3C2=O)C(=O)N1 (stereo not drawn) [GT-05688, 3-(5-(3-(4-benzhydrylpiperazin-1-yl)propyl)-1-oxoisoindolin-2-yl)piperidine-2,6-dione]	A (A represents 0% ≤ substrate protein remaining % ≤ 50%)	A (A represents 0% ≤ substrate protein remaining % ≤ 50%)	B (B represents substrate protein remaining % > 50%)	
500 to 1000			O=C1CCC(N2Cc3c(ccc(CN4CCN(C(c5ccccn5)c5ccccn5)CC4)c3F)C2=O)C(=O)N1 (stereo not drawn) [GT-05713, 3-(5-((4-(di(pyridin-2-yl)methyl)piperazin-1-yl)methyl)-4-fluoro-1-oxoisoindolin-2-yl)piperidine-2,6-dione]	B (B represents substrate protein remaining % > 50%)	B (B represents substrate protein remaining % > 50%)	A (A represents 0% ≤ substrate protein remaining % ≤ 50%)	
